This is an account of results in US20170157212A1, “CDK MODULATORS AND METHODS FOR THE TREATMENT OF CANCER” (Salk Institute for Biological Studies, priority 2015, published 2017).

The test system of test [1] is U2OS cells. The note with it: CDK12 siRNA, 1 μM for 12 hr.
Procedure: Top panel: U2OS cells were treated with tBHQ (tert-Butylhydroquinone) 100 μM for 4 h, and cell extracts were analyzed by co-immunoprecipitation with anti-CDK12 antisera for association of CRIF1 or CCNK.
Test [2] deals with CHK1, RPL26, TMA7 gene promoters in U2OS cells. The experiment in a line: Chromatin immunoprecipitation (ChIP) at CDK12 target gene promoters. It counts as cell-based, human. The note with it: 12 hr treatment. The procedure: Briefly, 5×10^6 cells were twice washed with ice-cold PBS and serially cross-linked with 2 mM DSG (Disuccinimidylglutarate) for 20 min and 1% (v/v) formaldehyde for 10 min at room temperature. The cross-linking reaction was stopped by adding glycine to a final concentration of 0.125 M for 10 min at room temperature. Cells were washed twice with cold PBS. […] ChIP DNA is analyzed by SYBR® Green master mixes (Life Technologies) using described primer sets. qPCR is carried out in the ABI7300 (Applied Biosystems) with a 10 min DNA denaturation step at 95° C., followed by 40 cycles of 15 s at 95° C., 60 s at 60° C. […]
ChIP experiments were carried out as described in the previous report. […] ChIP DNA is analyzed by SYBR® Green master mixes (Life Technologies) using described primer sets. qPCR is carried out in the ABI7300 (Applied Biosystems) with a 10 min DNA denaturation step at 95° C., followed by 40 cycles of 15 s at 95° C., 60 s at 60° C. […]

The next test has as its target Cdk12 (Homo sapiens, UniProt Q9NYV4). The settings on record: have been shown (prior knowledge); cited from earlier work.
In test [3] the test system is eIF4G-bound mRNAs in U2OS cells. The experiment in a line: RIP-seq of eIF4G-bound mRNAs. The test is classed as cell-based, human. The note with it: transcriptional targets excluded. The procedure: All steps were conducted at 4° C. in RNase-free conditions. U20S cells (5×10^6) were transfected with the indicated siRNAs and washed twice with cold PBS. […] Reverse transcription and qRT-PCR for quantitative RNA analysis was carried out as described above.
All steps were conducted at 4° C. in RNase-free conditions. […] Reverse transcription and qRT-PCR for quantitative RNA analysis was carried out as described above.
High throughput sequencing was performed. For detail of analysis, sequenced reads were quality-tested using FASTQC and aligned to the hg19 human genome using the STAR aligner version 2.4.0 k (Dobin et al., Bioinformatics. 2013; 29(1):15-21. doi: 10.1093/bioinformatics/bts635. pmid:23104886). Mapping was carried out using default parameters (up to 10 mismatches per read, and up to 9 multi-mapping locations per read). […] Raw gene expression was quantified across all gene exons (RNA-Seq) or across gene bodies (RIP-Seq), using the top-expressed isoform as proxy for gene expression, and differential gene expression was carried out using the edgeR package version 3.6.8 (Robinson et al. (2010) Bioinformatics, 26, pp. 1) using duplicates to compute within-group dispersion. […]

Test [4] concerns U2OS cells. The experiment in a line: Immunoblot of CDK12 substrate phosphorylation under oxidative stress. It counts as cell-based, human. The settings on record: 100 μM for 4 h. The procedure: (§1) FIGS. 7A-7F. […] (F) Oxidative stress activates the CDK12 pathway.
(§2) CDK12 was also recently shown to be essential for NRF2-dependent transcription (Li et al., Sci Rep 6, 21455, 2016). To examine whether CDK12 activity is regulated globally by oxidative stress in human cells, U2OS cells were treated with tBHQ (tert-butylhydroquinone) to induce mitochondrial oxidative stress. […] In contrast, oxidative stress had no effect on the interaction of CCNK with CDK12.
A general note: In western blotting, separated proteins are transferred to a membrane and probed.

In test [5] the test system is CRIF1-CDK12 interaction in U2OS cells. The experiment in a line: Co-immunoprecipitation of CRIF1 with CDK12:CCNK under oxidative stress. The test is classed as cell-based, human. The note with it: 100 μM for 4 h, reciprocal co-immunoprecipitation. The procedure: as §1, §2

Cdk12, sequence (Q9NYV4 whole entry): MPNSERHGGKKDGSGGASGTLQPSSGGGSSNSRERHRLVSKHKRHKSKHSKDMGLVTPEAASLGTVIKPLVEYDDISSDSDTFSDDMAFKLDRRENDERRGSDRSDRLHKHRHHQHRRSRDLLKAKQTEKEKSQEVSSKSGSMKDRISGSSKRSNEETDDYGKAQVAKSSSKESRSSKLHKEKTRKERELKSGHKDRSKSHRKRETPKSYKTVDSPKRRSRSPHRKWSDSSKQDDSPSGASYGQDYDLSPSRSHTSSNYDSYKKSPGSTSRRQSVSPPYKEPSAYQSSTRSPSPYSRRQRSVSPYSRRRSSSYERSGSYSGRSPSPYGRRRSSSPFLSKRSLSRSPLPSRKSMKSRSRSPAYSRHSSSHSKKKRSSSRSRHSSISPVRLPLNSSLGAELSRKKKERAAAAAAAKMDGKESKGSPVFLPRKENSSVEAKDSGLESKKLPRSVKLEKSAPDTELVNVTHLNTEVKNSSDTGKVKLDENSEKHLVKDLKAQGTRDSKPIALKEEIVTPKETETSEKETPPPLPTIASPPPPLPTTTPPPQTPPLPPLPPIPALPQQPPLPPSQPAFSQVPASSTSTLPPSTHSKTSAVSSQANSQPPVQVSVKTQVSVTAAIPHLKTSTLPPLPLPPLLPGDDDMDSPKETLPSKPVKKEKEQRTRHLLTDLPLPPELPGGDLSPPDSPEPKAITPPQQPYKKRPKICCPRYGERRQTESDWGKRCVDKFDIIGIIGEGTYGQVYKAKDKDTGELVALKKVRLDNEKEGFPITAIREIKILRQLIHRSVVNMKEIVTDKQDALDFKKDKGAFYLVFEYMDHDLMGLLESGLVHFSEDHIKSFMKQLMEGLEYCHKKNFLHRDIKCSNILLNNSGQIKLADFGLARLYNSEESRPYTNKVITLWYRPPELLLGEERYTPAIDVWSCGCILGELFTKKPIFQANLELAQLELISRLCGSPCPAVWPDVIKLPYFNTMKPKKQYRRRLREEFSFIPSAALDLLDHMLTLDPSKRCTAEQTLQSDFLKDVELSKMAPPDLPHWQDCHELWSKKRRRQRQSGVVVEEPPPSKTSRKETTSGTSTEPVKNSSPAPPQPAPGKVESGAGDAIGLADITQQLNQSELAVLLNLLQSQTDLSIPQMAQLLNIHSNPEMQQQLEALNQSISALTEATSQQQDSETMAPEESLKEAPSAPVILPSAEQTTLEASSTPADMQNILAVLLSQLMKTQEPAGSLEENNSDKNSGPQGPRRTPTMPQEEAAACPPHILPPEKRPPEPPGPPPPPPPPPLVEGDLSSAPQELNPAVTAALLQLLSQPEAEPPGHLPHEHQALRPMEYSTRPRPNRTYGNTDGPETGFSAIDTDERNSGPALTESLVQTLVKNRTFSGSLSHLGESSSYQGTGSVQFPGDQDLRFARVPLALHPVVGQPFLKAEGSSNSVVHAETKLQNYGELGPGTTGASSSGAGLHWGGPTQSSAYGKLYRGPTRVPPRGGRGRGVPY
Cdk12, sequence (O75909 whole entry partner): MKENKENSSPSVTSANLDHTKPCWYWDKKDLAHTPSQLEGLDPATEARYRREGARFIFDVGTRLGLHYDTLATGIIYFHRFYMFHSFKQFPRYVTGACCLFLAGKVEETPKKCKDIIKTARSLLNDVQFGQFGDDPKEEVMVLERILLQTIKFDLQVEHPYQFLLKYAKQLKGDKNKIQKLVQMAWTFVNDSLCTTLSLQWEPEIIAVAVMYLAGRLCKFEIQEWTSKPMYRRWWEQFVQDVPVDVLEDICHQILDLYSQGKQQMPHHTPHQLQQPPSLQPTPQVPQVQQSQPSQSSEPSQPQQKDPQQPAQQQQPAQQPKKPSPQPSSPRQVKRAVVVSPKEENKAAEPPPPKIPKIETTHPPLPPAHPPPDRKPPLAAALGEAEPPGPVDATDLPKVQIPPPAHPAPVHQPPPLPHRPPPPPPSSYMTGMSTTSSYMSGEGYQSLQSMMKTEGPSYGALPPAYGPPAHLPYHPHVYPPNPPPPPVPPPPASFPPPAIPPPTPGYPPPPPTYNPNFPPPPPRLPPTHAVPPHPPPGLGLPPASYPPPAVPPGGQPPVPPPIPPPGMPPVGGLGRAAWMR

Regarding `O=C(c1cc(Cc2n[nH]c(=O)c3ccccc23)ccc1F)N1CCN(C(=O)C2CC2)CC1` [Olaparib, olaparib], in the test with U2OS cells [1], the “cell survival with CDK12 depletion” value was “sensitizes”.

As for `CC[C@H](C)[C@@H]1NC(=O)CNC(=O)[C@@H]2Cc3c([nH]c4cc(O)ccc34)[S+]([O-])C[C@@H](NC(=O)CNC1=O)C(=O)N[C@@H](CC(N)=O)C(=O)N1C[C@H](O)C[C@H]1C(=O)N[C@@H]([C@@H](C)[C@@H](O)CO)C(=O)N2` (stereo in doubt) [α-amanitin], in test [2], the “association of eIF4E and 4E-BP1 at the CHK1 promoter” value is “largely abolished”; the “occupancy of RNAPII or CDK12 at the CHK1 promoter” value was “without affecting”.

Turning to `CN(C)C/C=C/C(=O)Nc1ccc(C(=O)Nc2cccc(Nc3ncc(Cl)c(-c4c[nH]c5ccccc45)n3)c2)cc1` [THZ1], the “inhibition of Cdk12 kinase activity” value on Cdk12 was “modestly inhibit”.

In the case of `CO[C@H]1C[C@@H]2CC[C@@H](C)[C@@](O)(O2)C(=O)C(=O)N2CCCC[C@H]2C(=O)O[C@H]([C@H](C)C[C@@H]2CC[C@@H](O)[C@H](OC)C2)CC(=O)[C@H](C)/C=C(\C)[C@@H](O)[C@@H](OC)C(=O)[C@H](C)C[C@H](C)/C=C/C=C/C=C/1C` [rapamycin], in test [3], the “number of rapamycin-sensitive mRNAs that require mTORC1 to efficiently bind eIF4G” value is reported as 2,961.

Regarding `CC(C)(C)c1cc(O)ccc1O` [tBHQ, tert-butylhydroquinone], in the test with U2OS cells [4], the “RNAPII CTD-Ser2 and 4E-BP1 S65, T70 phosphorylation” value is on record as “global increase”; the “mTORC1-dependent 4E-BP1 T37/46 phosphorylation levels” value is on record as “only modestly increased”. The “association of CRIF1 with the CDK12:CCNK complex” value in test [5] is on record as “greatly reduced”.

Consider `CN1CC[C@H](c2c(O)cc(O)c3c(=O)cc(-c4ccccc4Cl)oc23)[C@H](O)C1` [flavopiridol], for which the “inhibition of Cdk12 kinase activity” value at Cdk12 is on record as “modestly inhibit”.
